In PubChem BioAssay (NCI):
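Interpolation was linear, between the two tested concentrations surrounding the appropriate level; five concentrations were tested over 48 hours in 96-well plates. At the TGI there is no net growth.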

What was measured:
Test in all cases: NCI-60 cell line screen, 48 h
786-0 renal = test system: 786-0 renal
EKVX NSCLC = test system: EKVX NSCLC
HL-60(TB) leukemia = test system: HL-60(TB) leukemia
HS 578T breast = test system: HS 578T breast
KM12 colon = test system: KM12 colon
LOX IMVI melanoma = test system: LOX IMVI melanoma
MDA-N = test system: MDA-N
MOLT-4 leukemia = test system: MOLT-4 leukemia
NCI-H226 lung = test system: NCI-H226 lung
NCI-H23 lung = test system: NCI-H23 lung
PC-3 prostate = test system: PC-3 prostate
RPMI-8226 leukemia = test system: RPMI-8226 leukemia
SF-539 CNS = test system: SF-539 CNS
SK-OV-3 ovarian = test system: SK-OV-3 ovarian
SNB-19 CNS = test system: SNB-19 CNS
SW-620 colon = test system: SW-620 colon
OVCAR-4 ovarian = test system: OVCAR-4 ovarian
SK-MEL-28 melanoma = test system: SK-MEL-28 melanoma
NCI/ADR-RES ovarian = test system: NCI/ADR-RES ovarian

Row | SMILES | TGI (786-0 renal) | TGI (EKVX NSCLC) | TGI (HL-60(TB) leukemia) | TGI (HS 578T breast) | TGI (KM12 colon) | TGI (LOX IMVI melanoma) | TGI (MDA-N) | TGI (MOLT-4 leukemia) | TGI (NCI-H226 lung) | TGI (NCI-H23 lung) | TGI (PC-3 prostate) | TGI (RPMI-8226 leukemia) | TGI (SF-539 CNS) | TGI (SK-OV-3 ovarian) | TGI (SNB-19 CNS) | TGI (SW-620 colon) | TGI (OVCAR-4 ovarian) | TGI (SK-MEL-28 melanoma) | TGI (NCI/ADR-RES ovarian)
1 | CC(=O)OCC(C)(COC(C)=O)N1C(=O)C2C3c4ccccc4C(c4ccccc43)C2C1=O (stereo unspecified) | > 100 µM | > 100 µM | > 100 µM | > 100 µM | > 100 µM | > 100 µM | > 100 µM | > 100 µM | > 100 µM | > 100 µM | > 100 µM | > 100 µM | > 100 µM | > 100 µM | > 100 µM | > 100 µM |  |  | 
2 | CCOc1ccccc1-c1nc2c(s1)C(=O)c1ccccc1C2=O | 30.5 µM | 41.2 µM | 4.4 µM | 62.3 µM | 29.8 µM | 16.7 µM | 6.5 µM | > 100 µM |  | 31 µM | 29.6 µM | 54.8 µM | 40.9 µM | 28.2 µM | 65.3 µM | 23.4 µM | 35 µM | 30.4 µM | 
3 | C=C1C(=O)OC2C3C(=C)[C@@H](OC(C)=O)CC3C(C)=CC(OC(=O)C(C)(OC(C)=O)C(C)OC(C)=O)[C@@H]12 (stereo partly specified) | 33.5 µM | 30.9 µM | 6.54 µM | > 100 µM | 33.4 µM | 27.3 µM | 30.1 µM | 52.2 µM | 51.8 µM | 38.3 µM | 32.4 µM | 38.5 µM | 33.5 µM | > 100 µM | > 100 µM | 21.9 µM | 32.2 µM | 29 µM | 
4 | CCS(=O)(=O)CCn1c(=O)c2c(ncn2C)n(C)c1=O | > 100 µM | > 100 µM | > 100 µM | > 100 µM | > 100 µM | > 100 µM | > 100 µM | > 100 µM |  | > 100 µM | > 100 µM | > 100 µM | > 100 µM |  | > 100 µM | > 100 µM | > 100 µM | > 100 µM | > 100 µM
5 | ON[C@H]1C[C@@H](n2cnc3c(NC4CC4)ncnc32)[C@H](O)[C@@H]1O | > 100 µM | > 100 µM |  | > 100 µM | > 100 µM | > 100 µM | > 100 µM | > 100 µM | > 100 µM | > 100 µM | > 100 µM | > 100 µM | > 100 µM | > 100 µM | > 100 µM | > 100 µM | > 100 µM | > 100 µM | > 100 µM
6 | COc1cc(/C=C\c2nnc(/C=C\c3ccc(O)c(OC)c3)s2)ccc1O | > 100 µM | 18.4 µM | 5.45 µM | > 37.8 µM | 15.4 µM | 22.4 µM | 16.4 µM | 10.7 µM | 39 µM | 12.2 µM | > 64.3 µM |  | > 26.4 µM | 30.6 µM | > 82.1 µM | > 23.7 µM | 19.9 µM | > 100 µM | 14.2 µM
7 | CN(C)c1ccc(C2CC(c3ccc4ccccc4c3O)=NN2c2ccc([N+](=O)[O-])cc2[N+](=O)[O-])cc1 (stereo unspecified) | > 100 µM |  |  | > 100 µM | > 100 µM |  | 30.5 µM | 94.5 µM | > 100 µM | 77.7 µM | > 100 µM |  | > 100 µM | > 100 µM |  | > 100 µM | > 100 µM | > 100 µM | > 100 µM
8 | CCN(CC)C(=S)SC(C(=O)Nc1nnc(-c2ccccc2)o1)c1ccccc1 (stereo unspecified) | 61.1 µM | 49.5 µM |  | > 100 µM | 62.7 µM | 17 µM | 36.5 µM | > 100 µM | 74.7 µM | 34.2 µM | 66.8 µM | > 100 µM | 65.9 µM | > 100 µM | > 100 µM | > 100 µM | > 100 µM | 54.6 µM | 41.1 µM
9 | Cn1c2ccccc2c(=O)c2cccc(C(=O)NCC(=O)O)c21 | > 100 µM | > 100 µM |  | > 100 µM | > 100 µM | > 100 µM | > 100 µM | > 100 µM | > 100 µM | > 100 µM | > 100 µM | > 100 µM | > 100 µM | > 100 µM | > 100 µM | > 100 µM | > 100 µM | > 100 µM | > 100 µM
10 | COc1nc2c(c(=O)n1C)N=C(c1ccccc1)[C@H](C(CC(=O)c1ccccc1)c1ccccc1)C(c1ccccc1)N2 (stereo partly specified) | > 100 µM | > 100 µM | > 100 µM |  | > 100 µM | > 100 µM | > 100 µM | 57.1 µM | > 100 µM | > 100 µM | > 100 µM | > 100 µM | > 100 µM | > 100 µM | > 100 µM | > 100 µM | > 100 µM | > 100 µM | > 100 µM
11 | CCOC(=O)c1cc(Br)c(-c2cc(C)no2)[nH]1 | > 100 µM | > 100 µM | 83.6 µM |  | 24.7 µM | > 100 µM | > 100 µM | > 100 µM | > 100 µM | > 100 µM | > 100 µM | > 100 µM | > 100 µM | > 100 µM | > 100 µM | > 100 µM | 63 µM | > 100 µM | > 100 µM
12 | CN1C(=O)C(O)CC1c1ccccc1C(F)(F)F (stereo unspecified) | > 100 µM | > 100 µM | > 100 µM |  | > 100 µM | > 100 µM | > 100 µM | > 100 µM | > 100 µM | > 100 µM | > 100 µM | > 100 µM | > 100 µM | > 100 µM | > 100 µM | > 100 µM | > 100 µM | > 100 µM | > 100 µM
13 | ONC1=Nc2ccccc2C(=S)N2CSCC12 (stereo unspecified) | > 100 µM | > 100 µM |  | > 100 µM | > 100 µM | > 100 µM | 45.1 µM | > 100 µM | > 100 µM |  | > 100 µM | > 100 µM |  | > 100 µM | > 100 µM | > 100 µM | > 100 µM | > 100 µM | > 100 µM
14 | CCCCCCCCCCCCCCCCCCNc1nc(=O)n(C2CC(O)C(COP(=O)(O)OCC3OC(n4ccc(N)nc4=O)C(O)C3O)O2)cc1F (stereo unspecified) | > 100 µM | > 100 µM |  | > 100 µM | > 100 µM | 22.3 µM | > 100 µM | > 100 µM | > 100 µM | > 100 µM | > 100 µM | > 100 µM | > 100 µM | > 100 µM | > 100 µM | > 100 µM | > 100 µM | > 100 µM | > 100 µM
15 | COC(=O)[C@H]1COC(=O)N1 | > 100 µM | > 100 µM | > 100 µM | > 100 µM | > 100 µM | > 100 µM | > 100 µM | > 100 µM | > 100 µM | > 100 µM |  |  | > 100 µM | > 100 µM | > 100 µM | > 100 µM | > 100 µM | > 100 µM | > 100 µM
16 | O=C1c2ccccc2C2C1C(c1ccccc1)C1(Cc3ccccc3C1=O)C2c1ccccc1 (stereo unspecified) | > 100 µM | > 100 µM | 35.6 µM | > 100 µM | > 100 µM | > 100 µM | > 100 µM | > 100 µM | > 100 µM | > 100 µM | > 100 µM |  | > 100 µM | > 100 µM | > 100 µM | > 100 µM | > 100 µM | > 100 µM | > 100 µM
17 | O=c1[nH]c(=O)n(C2CC(O)C(CO)O2)c2nc3ccc4cc5ccccc5cc4c3nc12 (stereo unspecified) | > 100 µM | > 100 µM |  | > 100 µM | > 100 µM | > 100 µM | > 100 µM | > 100 µM | > 100 µM | > 100 µM | > 100 µM | > 100 µM | > 100 µM | > 100 µM | > 100 µM | > 100 µM | > 100 µM | > 100 µM | > 100 µM
18 | CSc1nc2c(c(N3CCOCC3)n1)C(O)n1c(nc3ccccc31)S2 (stereo unspecified) | > 100 µM | > 100 µM | > 100 µM | 92.7 µM | > 100 µM | > 100 µM | > 100 µM | > 100 µM |  | > 100 µM | > 100 µM | > 100 µM | 8.77 µM | > 100 µM | > 100 µM | > 100 µM | > 100 µM |  | > 100 µM
19 | CC(C)(C)OC(=O)NCCCC(=O)NC1(c2cc3ccccc3s2)CCCCC1 | 37.4 µM | 35.9 µM | 24.8 µM | 45.8 µM | 38.9 µM | 29.6 µM | 34.2 µM | 34.4 µM |  | 51 µM |  | 29.6 µM | 30.7 µM | 99.5 µM | > 100 µM | 52.8 µM | > 100 µM | 31.3 µM | 70 µM
20 | COc1ccc(N=NC(=Nc2ccc(Cl)cc2)c2ccc(N(CCC#N)CCC#N)cc2)cc1 | > 100 µM | > 100 µM |  | > 100 µM | > 100 µM |  | > 100 µM | 91.6 µM | > 100 µM | > 100 µM | > 100 µM | > 100 µM | > 100 µM | > 100 µM | > 100 µM | > 100 µM | > 100 µM | > 100 µM | > 100 µM
